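Exposure lasted 48 hours, with cells grown in 96-well plates and compounds tested at five concentrations. The concentration for full growth arrest is given as TGI.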
Tests used:
Test in all cases: NCI tumour cell line growth inhibition, 48 h
786-0 renal = system: 786-0 renal
A498 renal = system: A498 renal
A549 NSCLC = system: A549 NSCLC
ACHN renal = system: ACHN renal
CAKI-1 renal = system: CAKI-1 renal
CCRF-CEM leukemia = system: CCRF-CEM leukemia
COLO 205 colon = system: COLO 205 colon
DU-145 prostate = system: DU-145 prostate
EKVX NSCLC = system: EKVX NSCLC
HCC-2998 colon = system: HCC-2998 colon
HCT-116 colon = system: HCT-116 colon
HCT-15 colon = system: HCT-15 colon
HL-60(TB) leukemia = system: HL-60(TB) leukemia
HOP-62 NSCLC = system: HOP-62 NSCLC
HOP-92 NSCLC = system: HOP-92 NSCLC
HT29 colon = system: HT29 colon
IGROV1 ovarian = system: IGROV1 ovarian
K-562 leukemia = system: K-562 leukemia
KM12 colon = system: KM12 colon
LOX IMVI melanoma = system: LOX IMVI melanoma
M14 melanoma = system: M14 melanoma
MALME-3M melanoma = system: MALME-3M melanoma
MCF7 breast = system: MCF7 breast
MDA-MB-231 breast = system: MDA-MB-231 breast
MDA-MB-435 = system: MDA-MB-435
MDA-N = system: MDA-N
MOLT-4 leukemia = system: MOLT-4 leukemia
NCI-H226 lung = system: NCI-H226 lung
NCI-H23 lung = system: NCI-H23 lung
NCI-H460 lung = system: NCI-H460 lung
NCI-H522 lung = system: NCI-H522 lung
NCI/ADR-RES ovarian = system: NCI/ADR-RES ovarian
OVCAR-3 ovarian = system: OVCAR-3 ovarian
OVCAR-4 ovarian = system: OVCAR-4 ovarian
OVCAR-5 ovarian = system: OVCAR-5 ovarian
OVCAR-8 ovarian = system: OVCAR-8 ovarian
PC-3 prostate = system: PC-3 prostate
RXF 393 renal = system: RXF 393 renal
SF-268 CNS = system: SF-268 CNS
SF-295 CNS = system: SF-295 CNS
SF-539 CNS = system: SF-539 CNS
SK-MEL-2 melanoma = system: SK-MEL-2 melanoma
SK-MEL-28 melanoma = system: SK-MEL-28 melanoma
SK-MEL-5 melanoma = system: SK-MEL-5 melanoma
SK-OV-3 ovarian = system: SK-OV-3 ovarian
SN12C renal = system: SN12C renal
SNB-19 CNS = system: SNB-19 CNS
SNB-75 CNS = system: SNB-75 CNS
SR leukemia = system: SR leukemia
SW-620 colon = system: SW-620 colon
T-47D breast = system: T-47D breast
U251 CNS = system: U251 CNS
UACC-257 melanoma = system: UACC-257 melanoma
UACC-62 melanoma = system: UACC-62 melanoma
UO-31 renal = system: UO-31 renal

Structure (SMILES): CC(C)CNC(=O)CCc1cccc2c1oc1c(CCN)cccc12
- TGI (786-0 renal): 24.9 µM
- TGI (A498 renal): 32.3 µM
- TGI (A549 NSCLC): 35.6 µM
- TGI (ACHN renal): 25.8 µM
- TGI (CAKI-1 renal): 31.5 µM
- TGI (CCRF-CEM leukemia): 17.6 µM
- TGI (COLO 205 colon): 19.7 µM
- TGI (DU-145 prostate): 33.8 µM
- TGI (EKVX NSCLC): 27.6 µM
- TGI (HCC-2998 colon): 29.3 µM
- TGI (HCT-116 colon): 21.5 µM
- TGI (HCT-15 colon): 43 µM
- TGI (HL-60(TB) leukemia): 13.3 µM
- TGI (HOP-62 NSCLC): 33.7 µM
- TGI (HOP-92 NSCLC): 22.7 µM
- TGI (HT29 colon): 22.6 µM
- TGI (IGROV1 ovarian): 23.7 µM
- TGI (K-562 leukemia): 14.2 µM
- TGI (KM12 colon): 28.4 µM
- TGI (LOX IMVI melanoma): 27.9 µM
- TGI (M14 melanoma): 30.5 µM
- TGI (MALME-3M melanoma): 32 µM
- TGI (MCF7 breast): 46.1 µM
- TGI (MDA-MB-231 breast): 31.6 µM
- TGI (MDA-MB-435): 25.2 µM
- TGI (MDA-N): 40.5 µM
- TGI (MOLT-4 leukemia): 30.7 µM
- TGI (NCI-H226 lung): 33.6 µM
- TGI (NCI-H23 lung): 26.7 µM
- TGI (NCI-H460 lung): 36.9 µM
- TGI (NCI-H522 lung): 29.6 µM
- TGI (NCI/ADR-RES ovarian): 40.3 µM
- TGI (OVCAR-3 ovarian): 17.2 µM
- TGI (OVCAR-4 ovarian): 34 µM
- TGI (OVCAR-5 ovarian): 28.7 µM
- TGI (OVCAR-8 ovarian): 34.1 µM
- TGI (PC-3 prostate): 34.3 µM
- TGI (RXF 393 renal): 31.4 µM
- TGI (SF-268 CNS): 31.2 µM
- TGI (SF-295 CNS): 31.6 µM
- TGI (SF-539 CNS): 30.3 µM
- TGI (SK-MEL-2 melanoma): 36.7 µM
- TGI (SK-MEL-28 melanoma): 23.8 µM
- TGI (SK-MEL-5 melanoma): 27.2 µM
- TGI (SK-OV-3 ovarian): 31.6 µM
- TGI (SN12C renal): 32.2 µM
- TGI (SNB-19 CNS): 15.9 µM
- TGI (SNB-75 CNS): 20.1 µM
- TGI (SR leukemia): 29 µM
- TGI (SW-620 colon): 27.5 µM
- TGI (T-47D breast): 37.1 µM
- TGI (U251 CNS): 18.9 µM
- TGI (UACC-257 melanoma): 24.8 µM
- TGI (UACC-62 melanoma): 32 µM
- TGI (UO-31 renal): 25.2 µM
